Results taken from the supplement of paper PMC4862054.

Assays:
CAL-148 [1] = assay: normalised viability (% of control), CellTiter-Blue; higher = more viable cells (about 100 = DMSO control); details: incubation time: 72 h
Experimental: (§1)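 DSRT, CellTiter-Blue viability, 72 h incubation. Signal is normalised to DMSO and benzethonium chloride controls. Value is the normalised response at dose 9.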

HDQ-P1 [2] = assay: as above; details: incubation time: 72 h
Experimental: as §1

MDA-MB-453 [3] = assay: as above; details: incubation time: 72 h
Experimental: as §1

CAL-51 [4] = assay: as above; details: incubation time: 72 h
Experimental: as §1

CAL-85-1 [5] = assay: as above; details: incubation time: 72 h
Experimental: as §1

DU-4475 [6] = assay: as above; details: incubation time: 72 h
Experimental: as §1

CAL-148 [7] = assay: as above; details: incubation time: 72 h; remark: listed apart in the source
Experimental: (§2)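 DSRT, CellTiter-Blue viability, 72 h incubation. Signal is normalised to DMSO and benzethonium chloride controls. Value is the normalised response at dose 6.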

HDQ-P1 [8] = assay: as above; details: incubation time: 72 h; remark: listed apart in the source
Experimental: as §2

MDA-MB-453 [9] = assay: as above; details: incubation time: 72 h; remark: listed apart in the source
Experimental: as §2

CAL-51 [10] = assay: as above; details: incubation time: 72 h; remark: listed apart in the source
Experimental: as §2

CAL-85-1 [11] = assay: as above; details: incubation time: 72 h; remark: listed apart in the source
Experimental: as §2

DU-4475 [12] = assay: as above; details: incubation time: 72 h; remark: listed apart in the source
Experimental: as §2

MDA-MB-436 [13] = assay: as above; details: incubation time: 72 h
Experimental: (§3)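 DSRT, CellTiter-Blue viability, 72 h incubation. Signal is normalised to DMSO and benzethonium chloride controls. Value is the normalised response at dose 3.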

BT-549 [14] = assay: as above; details: incubation time: 72 h
Experimental: as §3

HCC1599 = assay: as above; details: incubation time: 72 h
Experimental: as §3

HCC1143 = assay: as above; details: incubation time: 72 h
Experimental: as §3

CAL-148 [15] = assay: as above; details: incubation time: 72 h; remark: listed apart in the source
Experimental: as §3

SK-BR-3 [16] = assay: as above; details: incubation time: 72 h
Experimental: as §3

HDQ-P1 [17] = assay: as above; details: incubation time: 72 h; remark: listed apart in the source
Experimental: as §3

MDA-MB-453 [18] = assay: as above; details: incubation time: 72 h; remark: listed apart in the source
Experimental: as §3

BT-474 [19] = assay: as above; details: incubation time: 72 h
Experimental: as §3

MDA-MB-436 [20] = details: 72 h
Summary of the method: (§4)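 Breast cancer cell lines (20 µl suspension) were seeded into 384-well plates holding compound at 5 concentrations in 10-fold steps over a compound-specific 10,000-fold range, then incubated 72 h. Cell death was read first by CellTox Green fluorescence (485/520 nm), then viability by CellTiter-Glo luminescence after 10 min at room temperature. Each plate was normalised to 0.1 % DMSO and a positive kill control. EC50 was fitted from the dose-response curves and censored at the top concentration.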

Hs578T = details: 72 h
Summary of the method: as §4

MCF-10A = details: 72 h
Summary of the method: as §4

HCC1937 = details: 72 h
Summary of the method: as §4

BT-549 [21] = details: 72 h
Summary of the method: as §4

CAL-120 = details: 72 h
Summary of the method: as §4

MDA-MB-468 = details: 72 h
Summary of the method: as §4

SK-BR-3 [22] = details: 72 h
Summary of the method: as §4

MDA-MB-453 [23] = details: 72 h
Summary of the method: as §4

BT-474 [24] = details: 72 h
Summary of the method: as §4

CAL-51 [25] = details: 72 h
Summary of the method: as §4

CAL-85-1 [26] = details: 72 h
Summary of the method: as §4

MDA-MB-453 [27] = details: 72 h; remark: listed apart in the source
Summary of the method: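 Each 384-well plate was pre-loaded with compound dissolved in 5 µl medium, received breast cancer cells in 20 µl suspension, and was incubated 72 h. A 2.5 µl addition of CellTiter-Blue for 2 h at 37 °C was followed by a fluorescence read at 560/590 nm. Data were normalised per plate to vehicle and a positive kill control and checked by Z'-factor. EC50 was fitted from the percent-inhibition dose-response curve, censored at the highest concentration, excluding rows with a drug sensitivity score of zero.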

MDA-MB-231 = details: 72 h
Summary of the method: as §4

Cn1cncc1[C@@](N)(c1ccc(Cl)cc1)c1ccc2c(c1)c(-c1cccc(Cl)c1)cc(=O)n2C [Tipifarnib]
Details | normalised viability [%]
BT-474 [19], 100 nM | 102
BT-549 [14], 100 nM | 95.3
CAL-51 [4], 10000 nM | 20.4
CAL-51 [10], 300 nM | 60.2
CAL-85-1 [5], 10000 nM | 47.2
CAL-85-1 [11], 300 nM | 64
CAL-148 [1], 10000 nM | 26.7
CAL-148 [7], 300 nM | 44.9
CAL-148 [15], 10 nM | 83.2
DU-4475 [6], 10000 nM | 15.7
DU-4475 [12], 300 nM | 43.9
HCC1143, 100 nM | 61.6
HCC1599, 100 nM | 72.7
HDQ-P1 [2], 10000 nM | 49.6
HDQ-P1 [8], 300 nM | 52.5
HDQ-P1 [17], 10 nM | 89.7
MDA-MB-436 [13], 100 nM | 87.9
MDA-MB-453 [3], 10000 nM | 19.9
MDA-MB-453 [9], 300 nM | 77.2
MDA-MB-453 [18], 10 nM | 93
SK-BR-3 [16], 100 nM | 57.8

Details | EC50, CellTiter-Blue viability [nM] | EC50, CellTiter-Glo [nM]
BT-474 [24] | – | 6900
BT-549 [21] | – | 5420
CAL-51 [25] | – | 82.5
CAL-85-1 [26] | – | 9990
CAL-120 | – | 1370
HCC1937 | – | 126
Hs578T | – | 7870
MCF-10A | – | 237
MDA-MB-436 [20] | – | 607
MDA-MB-453 [23] | – | 9.61
MDA-MB-453 [27] | 1430 | –
MDA-MB-468 | – | 3330
SK-BR-3 [22] | – | 414

O=C1NC(=O)[C@@H](c2cn3c4c(cccc24)CCC3)[C@@H]1c1c[nH]c2ccccc12 [Tivantinib]
Details | normalised viability [%]
BT-474 [19], 10 nM | 109
BT-549 [14], 10 nM | 111
CAL-51 [4], 1000 nM | 21.1
CAL-51 [10], 30 nM | 104
CAL-85-1 [5], 1000 nM | 33.9
CAL-85-1 [11], 30 nM | 95.8
CAL-148 [1], 1000 nM | 30.5
CAL-148 [7], 30 nM | 104
CAL-148 [15], 1 nM | 107
DU-4475 [6], 1000 nM | 36.9
DU-4475 [12], 30 nM | 87.3
HCC1143, 10 nM | 87.8
HCC1599, 10 nM | 98.4
HDQ-P1 [2], 1000 nM | 53
HDQ-P1 [8], 30 nM | 55.3
HDQ-P1 [17], 1 nM | 109
MDA-MB-436 [13], 10 nM | 101
MDA-MB-453 [3], 1000 nM | 31
MDA-MB-453 [9], 30 nM | 107
MDA-MB-453 [18], 1 nM | 108
SK-BR-3 [16], 10 nM | 77.3

Details | EC50, CellTiter-Blue viability [nM] | EC50, CellTiter-Glo [nM]
BT-474 [24] | – | > 1000
BT-549 [21] | – | 639
CAL-51 [25] | – | 744
CAL-85-1 [26] | – | 528
CAL-120 | – | 991
Hs578T | – | 519
MCF-10A | – | 318
MDA-MB-231 | – | 554
MDA-MB-436 [20] | – | 391
MDA-MB-453 [23] | – | 552
MDA-MB-453 [27] | 169 | –
MDA-MB-468 | – | 613
SK-BR-3 [22] | – | 387

CC[C@]1(O)C[C@H]2CN(CCc3c([nH]c4ccccc34)[C@@](C(=O)OC)(c3cc4c(cc3OC)N(C=O)[C@H]3[C@@](O)(C(=O)OC)[C@H](OC(C)=O)[C@]5(CC)C=CCN6CC[C@]43[C@@H]65)C2)C1 [Vincristine]
Details | normalised viability [%]
BT-474 [19], 10 nM | 46.2
BT-474 [19], 100 nM | 57.2
BT-549 [14], 10 nM | 29.3
BT-549 [14], 100 nM | 25.2
CAL-51 [4], 1000 nM | 11.7
CAL-51 [4], 10000 nM | 10.7
CAL-51 [10], 30 nM | 42.3
CAL-51 [10], 300 nM | 12.6
CAL-85-1 [5], 1000 nM | 47.4
CAL-85-1 [5], 10000 nM | 39.8
CAL-85-1 [11], 30 nM | 34.9
CAL-85-1 [11], 300 nM | 39.6
CAL-148 [1], 1000 nM | 21.8
CAL-148 [1], 10000 nM | 28.5
CAL-148 [7], 30 nM | 16.5
CAL-148 [7], 300 nM | 24.5
CAL-148 [15], 1 nM | 91.3
CAL-148 [15], 10 nM | 90.2
DU-4475 [6], 1000 nM | 7.67
DU-4475 [6], 10000 nM | 8.66
DU-4475 [12], 30 nM | 36.9
DU-4475 [12], 300 nM | 12
HCC1143, 10 nM | 34.2
HCC1143, 100 nM | 40.4
HCC1599, 10 nM | 93.5
HCC1599, 100 nM | 51.1
HDQ-P1 [2], 1000 nM | 41.5
HDQ-P1 [2], 10000 nM | 37.9
HDQ-P1 [8], 30 nM | 33.5
HDQ-P1 [8], 300 nM | 27.9
HDQ-P1 [17], 1 nM | 109
HDQ-P1 [17], 10 nM | 90.7
MDA-MB-436 [13], 10 nM | 52.4
MDA-MB-436 [13], 100 nM | 44.9
MDA-MB-453 [3], 1000 nM | 38.5
MDA-MB-453 [3], 10000 nM | 41.6
MDA-MB-453 [9], 30 nM | 29.2
MDA-MB-453 [9], 300 nM | 34.2
MDA-MB-453 [18], 1 nM | 103
MDA-MB-453 [18], 10 nM | 31.6
SK-BR-3 [16], 10 nM | 15.6
SK-BR-3 [16], 100 nM | 15.8

Details | EC50, CellTiter-Blue viability [nM] | EC50, CellTiter-Glo [nM]
BT-474 [24] | – | 7.55
BT-549 [21] | – | 1.71
CAL-51 [25] | – | 57.3
CAL-85-1 [26] | – | 2.7
CAL-120 | – | 3.26
HCC1937 | – | 2.89
Hs578T | – | 16.2
MCF-10A | – | 2.93
MDA-MB-231 | – | 11.6
MDA-MB-436 [20] | – | 11.6
MDA-MB-453 [23] | – | 6.53
MDA-MB-453 [27] | 3.57 | –
MDA-MB-468 | – | 2.18
SK-BR-3 [22] | – | 2.33
